Read-outs that look alike come from different tables or passages of the source.
What was measured:
Tet(X4) [1] = biological target: T1, Tet(X4) (Escherichia coli, UniProt A0A3T0V9Y5); assay: FP competitive displacement of probe 6; type: binding; conditions: for IC50: IC50app, FP assay, 25 nM 6, 40 nM Tet(X4), 5 mM MgCl2, 1 μM FAD, 100 mM Tris pH 7.0, 0.01% Triton X-100; for displacement of probe 6 / competitive binding (in words): up to a maximum concentration of 100 μM
In short: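 FP displacement of probe 6 (added as 50 nM solution) from Tet(X4) (2× mix: 80 nM enzyme, 2 μM FAD, 10 mM MgCl2), 30 min at ambient temperature. Dose-response used 3-fold, 10-point DMSO series (top 5 or 0.5 mM stock). IC50^app came from a Hill fit of control-normalised response. Library screening used 10 μM compound, 0.1% DMSO, […].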

Tet(X4) [2] = biological target: T1, Tet(X4); assay: Absorbance activity assay (tigecycline turnover, A400); type: biochemical; conditions: for inhibition in the absorbance assay (in words): AZT up to 1 mM
Excerpt: We then tested the binding of reported type 1 TDase inhibitors to Tet(X4) (Fig. 3f, ESI Fig. S17 ^†).[33,38,39] […] These compounds gave similar apparent IC50^app values, in accord with trends in IC50 measurements performed by Markley et al.[33] […] We also developed a complementary endpoint activity assay where the turnover of tigecycline by Tet(X4) in a 96-well plate was quenched by addition of 1%v/v formic acid and analysed chromatographically. The peak integrals of tigecycline and its hydroxylated degradation product at 254 nm following UPLC analysis were measured to determine turnover (Fig. 5a). As this method separates components by chromatography, it enables IC50 measurements independent of potential interference from UV-active inhibitors (Fig. 5b). […] The apparent synergy of AZT with tetracyclines against whole cells expressing Tet(X4)[40] is therefore interesting and may derive from the proposed ability of AZT to interfere with DNA synthesis in bacteria,[40,53] or other unidentified mechanisms. […] Note, however, that plumbagin and 2-MNQ are naphthoquinones, which are well-characterised redox-active pan-assay interference (PAINS) moieties.[54]
233 Absorbance Activity Assays
234 A solution containing 100 mM TAPS (pH 8.5), 2 µM FAD, 10 mM MgCl2 and 100 nM Tet(X4) was
235 dispensed into a 384 well µClear plate (Greiner Bio-One), 25 µL per well, using a microplate reagent
236 dispenser. A 3-fold, 10-point dilution series of the substrates and inhibitors was made in DMSO with
237 the highest concentration of 50 mM, unless otherwise stated, and transferred to the enzyme solution in
238 technical quadruplicate using a CyBi-Well (CyBio) liquid-handling robot (1 µL per well). On each plate,
239 a column of no enzyme negative controls and no inhibitor (DMSO only) positive controls were
240 included. The plate was briefly centrifuged (1000 rpm), then incubated (ambient temperature,15 min).
241 A solution containing 100 mM TAPS (pH 8.5), 50 µM tigecycline and 500 µM NADPH was then
242 dispensed, with 25 µL per well. The plate was briefly centrifuged (1000 rpm), then transferred to a
243 CLARIOstar Plus Microplate reader. The absorbance was monitored at wavelength […] over the
244 course of 2 hours (23 flashes / cycle, 180 s cycle time, 41 data points, 25 ° C). The initial rate was
245 calculated by measuring the rate of change of A400 during the initial linear regime. Initial rates were
246 normalised between positive and negative controls. The normalised % response was plotted as a
(§1) 247 function of log10([Inhibitor]) in molar units, and the IC50 was determined as above. […]

Tet(X4) [3] = biological target: T1, Tet(X4); assay: biochemical
Experimental: We then tested the binding of reported type 1 TDase inhibitors to Tet(X4) (Fig. 3f, ESI Fig. S17 ^†).[33,38,39] […] We also developed a complementary endpoint activity assay where the turnover of tigecycline by Tet(X4) in a 96-well plate was quenched by addition of 1%v/v formic acid and analysed chromatographically. The peak integrals of tigecycline and its hydroxylated degradation product at 254 nm following UPLC analysis were measured to determine turnover (Fig. 5a).
[…] A 3-fold, 10-point dilution series of the substrates and inhibitors was made in DMSO with a top concentration of 10 mM, unless otherwise stated, and transferred to the enzyme solution using a CyBi-Well liquid-handling robot (CyBio), 1 μL per well. On each plate, a column of no enzyme negative controls and no inhibitor (DMSO only) positive controls were included. The plate was incubated at 30 °C for 15 min. A solution containing 100 mM TAPS (pH 8.5), 40 μM tigecycline and 200 μM NADPH was then dispensed, with 49 μL per well. The plate was incubated at 30 °C for 20 min at 600 rpm. 10 μL of 10%v/v formic acid solution was then dispensed into all wells. Samples were analysed using an ACQUITY H-Class PLUS UPLC instrument (Waters) equipped with a pre-equilibrated ACQUITY BEH C18 column ([…], […], Waters) using a gradient of 1–50%v/v acetonitrile with 0.1%v/v formic acid in water with 0.1%v/v formic acid over 1.83 minutes at a flow rate of 0.5 mL min^−1. Instrument control and data processing were performed using MassLynx V4.1 software. The peaks representing tigecycline and 11a-hydroxy-tigecycline were integrated, used to calculate % conversion and then normalised between positive and negative controls. The normalised % response was plotted as a function of log10[Inhibitor], and the IC50 determined as described above.

Tet(50) = biological target: T2, Tet(50) (Unknown prokaryotic organism, UniProt A0A059WYP6); assay: Fluorescence polarisation binding assay of probes with purified TDase; conditions: for Kd: 25 nM probe, 5 mM MgCl2, 1 μM FAD, 100 mM Tris pH 7.0, 0.01% Triton X-100; for binding to Tet(50) (in words): up to a concentration of 5 μM of enzyme
T2 construct: made in house; host or cells: E. coli BL21(DE3)
Experimental: (§2) NADPH was not included to prevent turnover of the probe to the hydroxylated product, which would likely have a lower binding affinity than the initial probes. Screens were conducted in pH 7.0 buffer with addition of 0.01% Triton-X100 detergent in non-binding plates to minimise adsorption to the plate wells.[45]
(§3) Aliquots of TDases were thawed and serially diluted with the assay buffer (100 mM Tris, pH 7.0 with 0.01% Triton X-100) in a V-bottom 96-well plate (Greiner Bio-One). 12.5 μL of each concentration of enzyme was transferred in quadruplicate to a 384-well black, non-binding microtiter plate (Greiner Bio-One). Aliquots of 2 mM stock of fluorescent probes 5 and 6 in DMSO were thawed and diluted to 50 nM in the assay buffer with 2 μM FAD and 10 mM MgCl2. 12.5 μL of this solution was added to wells containing enzyme. A negative control of 12.5 μL of the probe solution with 12.5 μL of the assay buffer was included on each plate. The plate was briefly centrifuged (1000 rpm), then incubated at ambient temperature for 30 min before measuring the FP response using a PHERAstar FS microplate reader (BMG Labtech) equipped with an FP optic module (excitation = 540 ± 20 nm, Emission = 590 ± 20 nm, 200 flashes per well). ΔmP values were calculated by subtracting the average mP of the negative controls from the mP measured for each well. To calculate Kd values, the derived ΔmP values were plotted as a function of enzyme concentration and a one-site specific binding model was applied (GraphPad Prism 9.4.1).

Tet(X7) = assay: as above; conditions: 25 nM probe, 5 mM MgCl2, 1 μM FAD, 100 mM Tris pH 7.0, 0.01% Triton X-100
Experimental: as §2, §3

Tet(X5) = assay: as above; conditions: 25 nM probe, 5 mM MgCl2, 1 μM FAD, 100 mM Tris pH 7.0, 0.01% Triton X-100
Experimental: as §2, §3

Tet(X2) = biological target: T3, Tet(X2) (Bacteroides thetaiotaomicron, UniProt Q93L51); assay: as above
T3 construct: For Tet(X2), the full-length protein was prepared rather that the Δ1–10 mutant used previously for crystallographic studies; made in house; host or cells: E. coli BL21(DE3)
Experimental: as §2, §3

Tet(X4) [4] = biological target: T1, Tet(X4); assay: as above
Experimental: as §2
as §3, with “Aliquots of 2 mM stock of fluorescent probes 5 and 6 in DMSO were thawed and diluted to 50 nM in the assay buffer with 2 μM FAD and 10 mM MgCl2.” left out

Tet(X4) [5] = biological target: T1, Tet(X4); assay: Turnover of probe 6 (absorbance and LC-MS); type: biochemical; conditions: with NADPH; decrease of A400 and +16 Da species by LC-MS
Experimental: To investigate whether fluorescent probe 6 binds to the active site of the Tet(X) enzymes, we carried out docking of the probe with Tet(X4)[8] (ESI Fig. S10 ^†). […] We thus considered that probe 6 may be hydroxylated by Tet(X4) when NADPH was added to initiate turnover. We monitored turnover of probe 6 using an absorbance-readout assay with Tet(X4) adapted from previous studies.[33] A decrease in absorbance at 400 nm was observed, consistent with hydroxylation, but was not seen in a control reaction lacking Tet(X4) (ESI Fig. S11 ^†). This observation was corroborated by LC-MS analysis of the reaction (ESI Fig. S12 ^†). Appearance of an apparently mono-hydroxylated species with mass 989.348 Da (calculated mass: 989.3504 Da) was observed, +16 Da relative to the starting material (measured mass: 973.355 Da; calculated mass: 973.3555 Da).
233 Absorbance Activity Assays […]
243 CLARIOstar Plus Microplate reader. The absorbance was monitored at wavelength […] over the […]
245 calculated by measuring the rate of change of A400 during the initial linear regime. […]
as §1
252 reaction was monitored by recording the absorbance spectra between 200-800 nm at one-minute […]
261 Quenched samples were stored at -20 °C prior to analysis. Samples were analysed using a Xevo G2-XS […]

Row | SMILES | IC50 (Tet(X4) [1]) [µM] | displacement of probe 6 / competitive binding (in words) (Tet(X4) [1]) | IC50 (Tet(X4) [2]) [µM] | inhibition in the absorbance assay (in words) (Tet(X4) [2]) | inhibition in the UPLC assay (in words) (Tet(X4) [3]) | IC50 (Tet(X4) [3]; IC50, UPLC assay) [µM] | IC50 (Tet(X4) [3]; 20 μM tigecycline, 50 nM Tet(X4), 100 μM NADPH, 5 mM MgCl2, 1 μM FAD, 100 mM TAPS pH 8.5, read-out: IC50, UPLC assay) [µM] | inhibition in the UPLC assay (in words) (Tet(X4) [3]; AZT up to 100 μM) | Kd (Tet(50)) [µM] | binding to Tet(50) (in words) (Tet(50)) | Kd (Tet(X7)) [µM] | Kd (Tet(X5)) [µM] | Kd (Tet(X2)) [µM] | Kd (Tet(X4) [4]; 25 nM probe, 5 mM MgCl2, 1 μM FAD, 100 mM Tris pH 7.0, 0.01% Triton X-100, read-out: Kd) [µM] | Kd (Tet(X4) [4]; Kd, 25 nM probe, 5 mM MgCl2, 1 μM FAD, 100 mM Tris pH 7.0, 0.01% Triton X-100) [µM] | Kd (Tet(X4) [4]; apparent Kd, with 5 mM MgCl2) [µM] | Kd (Tet(X4) [4]; apparent Kd, without MgCl2) [µM] | turnover by Tet(X4) (in words) (Tet(X4) [5])
1 | Cc1cn([C@H]2C[C@H](N=[N+]=[N-])[C@@H](CO)O2)c(=O)[nH]c1=O [Azidothymidine] | > 100 | minimal competitive binding | > 1000 | No inhibition | No inhibition | > 100 |  |  |  |  |  |  |  |  |  |  |  | 
2 | CC1=CC(=O)c2c(O)cccc2C1=O [Plumbagin] | > 100 | minimal competitive binding | 49.1 ± 4.9 | moderate |  |  | 37.2 ± 8.2 | moderate |  |  |  |  |  |  |  |  |  | 
3 | CN(C)c1ccc2c(-c3ccc(C(=O)NCC(=O)Nc4cc(N(C)C)c5c(c4O)C(=O)C4=C(O)[C@]6(O)C(=O)C(C(N)=O)=C(O)[C@H](N(C)C)[C@@H]6C[C@@H]4C5)cc3C(=O)[O-])c3ccc(=[N+](C)C)cc-3oc2c1 [Probe 5] |  |  |  |  |  |  |  |  | > 5 | no detectable binding | 0.126 ± 0.015 | 0.0299 ± 0.0027 | 0.0669 ± 0.0103 | 0.0465 ± 0.0041 |  |  |  | 
4 | CN(C)c1ccc2c(-c3ccc(NC(=S)NCC(=O)Nc4cc(N(C)C)c5c(c4O)C(=O)C4=C(O)[C@]6(O)C(=O)C(C(N)=O)=C(O)C(N(C)C)[C@@H]6C[C@@H]4C5)cc3C(=O)[O-])c3ccc(=[N+](C)C)cc-3oc2c1 (stereo partly drawn) [Probe 6, TRITC-glycyl-minocycline] |  |  |  |  |  |  |  |  | > 5 | no detectable binding | 0.0405 ± 0.0051 | 0.0106 ± 0.0013 | 0.0224 ± 0.004 |  | 0.0173 ± 0.0019 | 0.0181 ± 0.0024 | 0.188 ± 0.033 | can be turned over

Source: PMC12056667 (Chemical Science, 2025)
